Patent publication US9498546B2, “Synthesis and application of novel imaging agents conjugated to DPA 713 analogs for imaging inflammation” (THE JOHNS HOPKINS UNIVERSITY, priority 2012, dated 2016)

Assays:
[1] = molecular target: T1, TSPO (3H-R-PK11195 binding in J774 macrophages) (Mus musculus, UniProt P50637); assay: IC50 determination: inhibition of [3H]PK11195 binding in live J774 macrophage-like cells; parameters: species or system murine; details: fixed concentration of [3H]PK11195, FIG. 3
T1 construct: using a fixed number of live murine J774 macrophage-like cells; endogenous in cells; host or cells: J774 murine macrophage-like cell line (live cells)
Experimental: FIG. 3 is a graph showing the IC50 for inhibition of 3H-R-PK11195 binding in J774 macrophages by DPA713-IRDye680LT (nM).
The IC50 value determination was done by using a fixed number of live murine J774 macrophage-like cells and incubating increasing concentrations of DPA-713-IRDye against a fixed concentration of [^3H]PK11195. All reactions and washes (50 mM Tris, pH 7.4) are done using a Brandell Cell Harvester and the cells are counted in a scintillation counter with scintillent at the end. The cpm for each group is then plotted against the log of DPA-713-IRDye concentration and the data fitted to a sigmoidal curve. The 50% inhibition of [^3H]PK11195 binding is then determined and reported as the IC50 (FIG. 3).

[2] = tested on: TSPO+ MDA-MB-231 / MDA-MB-231-PSMA xenografts; assay: In vivo NIRF imaging in TSPO+ MDA-MB-231 breast cancer xenograft bearing mice; parameters: species or system NOD-SCID mice; details: 6 nmol intraperitoneally; imaged 1-24 hours
Experimental: Cell lines and Tumor Models. Generation of MDA-MD-231-LMD-PSMA cells. LV-PSMA is a VSV-G pseudotyped lentivirus encoding PSMA which was packaged in 293T cells. LMD-PSMA cells were generated in-house by repetitive lentiviral transduction of a cell line isolated from a lung metastasis derived MDA-MB-231 xenograft in a female NOD-SCID mouse. PSMA expression was evaluated by western blot analysis with 7E11-05 (1:200 dilution). […] Six-to-eight week old female NOD SCID mice were injected subcutaneously with 5×10^6 MDA-MB-231-LMD (a lung metastasis-derived subline of parental MDA-MB-231 behind the right forearm and 5×10^6 MDA-MB-231-LMD-PSMA (the same cell line with Prostate Specific Membrane Antigen (PSMA) stably knocked in via lentiviral vector) injected behind the […] xenografts were allowed to grow until the PSMA xenograft was at least 3 mm in diameter while the −LMD xenograft had reached 6-8 mm in diameter.
Serial in vivo NIRF imaging in TSPO+MDA-MB-231 LMD±PSMA and PC-3 PIP and -flu tumor xenograft bearing mice. MDA-MB-231 LMD lines: one mouse was imaged serially at 1 hour post-tracers, 4 hours, 8 hours and 24 hours post-tracers using a Pearl Impulse Imager (LI-COR Biosciences) with dedicated 710 and 800 nm emission filters. All images were scaled to the same maximum using the manufacturer's software to facilitate direct comparison of all timepoints. […]

[3] = tested on: TSPO+ PC-3 PIP and PC-3 flu prostate xenografts; assay: In vivo NIRF imaging in PC-3 PIP and PC-3 flu xenograft bearing mice; parameters: species or system athymic nude mice; details: for Distribution of fluorescent signal, tracer only: 8 nmol intraperitoneally
Experimental: FIG. 7 depicts imaging of athymic nude mice bearing two subcutaneous xenografts each consisting of one PC-3 PIP (PSMA+ stable transfected, macrophage and vasculature enriched) and PC-3 flu (PC-3 transfected with empty vector) were injected intraperitoneally with 8 nmol of DPA-713-IRDye680LT when the tumors reached 4-8 mm in diameter. […] The mice were imaged in vivo at 1 hour post-injection and again at 24 hours post-injection.
Prostate lines PC-3 PIP (PSMA stable transfected) and PC-3 flu (empty vector transfected) cells were originally a gift from Warren B. Heston (Cleveland Clinic Foundation). PC-3 is androgen insensitive and constituitively expresses TSPO. […] Intact male athymic nude mice were inoculated subcutaneously with 2×10^6 PC-3 PIP cells behind the right forearm and 2×10^6 PC-3 flu cells behind the left forearm and were allowed to grow for 14 days until they reached 1 cm in longest diameter. Mice bearing LNCaP xenografts were inoculated with 5×10^6 cells in Matrigel (1:1, vol:vol) (Becton Dickenson, Franklin Lakes, N.J.) and were allowed to grow for a year before they reached 1 cm in diameter. The mice were then used in imaging experiments as described below.
PC-3 PIP and -flu xenograft bearing mice. […] The mice were anesthetized with isoflurane gas (2% in oxygen) and imaged at 1 hour and 24 hours post-injection using the Pearl Impulse imager using the 680 absorption/710 emission channels (DPA-713-IRDye680LT). PIP/flu and LNCaP-bearing mice were imaged using the inventive probe DPA-713-IRDye800CW at 1 hour post-injection using a Perkin Elmer IVIS 200 instrument set to absorb at 790 nm and emit at 810 nm. Images were visualized and processed using the manufacturer's Living Image software.
Prostate tumors that have become androgen insensitive constituitively express TSPO, including the PC-3 cell line. Athymic nude mice bearing two subcutaneous xenografts each consisting of one PC-3 PIP (PSMA+ stable transfected, macrophage and vasculature enriched) and PC-3 flu (PC-3 transfected with empty vector) were injected intraperitoneally with 8 nmol of DPA-713-IRDye680LT when the tumors reached 4-8 mm in diameter. […] The mice were imaged in vivo at 1 hour post-injection and again at 24 hours post-injection.

Question: With CCN(CC)C(=O)Cc1c(-c2ccc(OCCNC(=O)CCCCc3cccc(C(=C\C=C4/N(CCCS(=O)(=O)O)c5ccc6c(S(=O)(=O)O)cc(S(=O)(=O)O)cc6c5C4(C)C)/C=C/C4=[N+](CCCS(=O)(=O)[O-])c5ccc6c(S(=O)(=O)O)cc(S(=O)(=O)O)cc6c5C4(C)C)c3)cc2)nn2c(C)cc(C)nc12 [DPA-713-IRDye680LT, 3-(2-((1E,3Z,5Z)-3-(3-(5-(2-(4-(3-(2-(diethylamino)-2-oxoethyl)-5,7-dimethylpyrazolo[1,5-a]pyrimidin-2-yl)phenoxy)ethylamino)-5-oxopentyl)phenyl)-5-(1,1-dimethyl-6,8-disulfo-3-(3-sulfopropyl)-1Hbenzo[e]indol-2(3H)-ylidene)penta-1,3-dienyl)-1,1-dimethyl-6,8-disulfo-1H-benzo[e]indolium-3-yl)propane-1-sulfonate] as the compound, how does the IC50 [1] read?
Answer: ~325 nM

Question: What about the “Probe uptake in the larger (8 mm) PSMA+ xenograft” value [2] of the same compound?
Answer: visible 1 hour following peritoneal injection and continues through 24 hours after injection

Question: And the “Probe uptake in the smaller (3 mm) parental xenograft” value [2]?
Answer: no observable uptake until the fur and skin are removed at 24 hours post-injection

Question: And the “Distribution of fluorescent signal, tracer only” value ([3]; 1 hour post-injection)?
Answer: only the macrophage enriched PC-3 PIP tumor is clearly visible

Question: What about the “Distribution of fluorescent signal, tracer only” value ([3]; 24 hours post-injection) of the same compound?
Answer: distributed at the periphery of both tumors in the tracer-only mouse and is strongly retained by TSPO+ kidneys

Question: What about the “Tumor uptake with co-administered unlabeled DPA-713” value ([3]; 8 nmol tracer + 20 mg/kg unlabeled DPA-713, 1 hour post-injection) of the same compound?
Answer: Neither tumor takes up the fluorescent probe

Question: What about the “Tumor and kidney uptake with co-injected unlabeled DPA-713” value ([3]; 8 nmol tracer + 20 mg/kg unlabeled DPA-713, 24 hours post-injection) of the same compound?
Answer: neither tumor nor kidney uptake

Question: And the “Clearance of unbound probe” value ([3]; 24 hours post-injection, intraperitoneal)?
Answer: cleared from the peritoneal space
